Several values for one entry are separate records, joined by “and”; a condition that tells them apart may be missing. Equal values may be shown once.
What was measured:
[1] = test system: BBB; details: cited from earlier work; for In vivo human rate constant for compound transfer from blood across the BBB into brain (K1): human clinical PET, ref Ghazanfari et al. 2024, Le Roux et al. 2019
[2] = in vitro; details: human
Source text: All human iPSC-derived blood-brain barrier cells (Brain Microvascular Endothelial Cells (BMECs), Astrocytes and Pericytes (AP)), media (BMEC maintenance medium and AP medium), and media supplements (plating supplement 500X) have been purchased from Fujifilm Cellular Dynamics Inc. (FCDI, Madison, WI, US, catalogue: R1241). The respective certificates of analysis, including cell characterization data, can be accessed in Supplementary Data File 1. All cells were derived from the same proprietary donor. […] All additional experiments included 96-transwell® membranes only. […] BMEC maintenance medium contained only 1 % P/S without supplements. Unless stated differently, transwell® compartment volumes were used as recommended by Corning including 75 µL apically and 235 µL basolaterally for 96-transwells® as well as 300 µL apically and 1000 µL basolaterally for 24-transwells®.
On day −2, 24-transwells® were coated apically with Collagen IV-Fibronectin coating solution and stored overnight at 4 °C (Fig. 1A). In contrast, 96-transwells® were first flipped upside down, and coated with 50 µL Fibronectin-Collagen IV solution on the basolateral side for 4 h at 37 °C and 5 % CO2 and stored overnight at 4 °C (Fig. 1B). On day −1, 24-transwells® were flipped upside down and coated with 100 µL of a 0.1 % Gelatin solution for 0.5 h at room temperature (RT) before replacement with 100 µL of the AP seeding solution containing 1.1 × 10^6 astrocytes/mL and 2.2 × 10^6 pericytes/mL in AP plating medium. After seeding, cells were incubated to attach for 4 h at 37 °C and 5 % CO2 and then flipped back to normal orientation. […] In both cases, Collagen IV-Fibronectin coating solution was replaced with AP plating medium. […] Here, cells were incubated to attach for 4 h at 37 °C and 5 % CO2 before flipping the transwells® slowly back to normal orientation. To inspect the cell layers for obvious leakages or cell detachment, blank transwell® filters and fully assembled models were observed under a Zeiss Primovert microscope (Carl Zeiss Microscopy GmbH, Jena, Germany) (Supplementary Figure 1). On day 1, BMEC plating medium was replaced by BMEC maintenance medium. After 24 h at 37 °C and 5 % CO2 barrier integrity was evaluated to consider only highly restrictive BBB models for pharmaceutical permeability testing.
After 60 min at 37 °C, 5 % CO2 and 100 rpm shaking on an orbital shaker, 50 µL were sampled from the donor and acceptor (containing APs) compartment. Following a transfer to 96-well plates, samples were diluted 1:1 with 50 µL of DPBS.
With cac being the analyte concentration in the acceptor compartment (µM), t the duration of the incubation (s, here 3 600 s), A the surface area of the respective transwell® membrane (cm^2), Vac the volume of the acceptor compartment (mL) and cdc the applied concentration in the donor compartment (µM). Papp was reported as the average of triplicate 24-transwell® models and six 96-transwell® model replicates.
Additional compound data, including final solvent concentrations and physicochemical properties, were summarized in Supplementary Table 1. After 60 min at 37 °C, 5 % CO2 and 100 rpm shaking on an orbital shaker, 50 µL were sampled from the acceptor and donor compartments of quadruplicate BBB models as well as cell-free controls.
Then, all samples were subject to protein precipitation with acetonitrile:methanol 50:50 (v/v). After centrifugation for 10 min at 10 000 × g, supernatants were transferred to new vials and subsequently evaporated to dryness. […] Derivatization was executed in a ThermoMixer C (Eppendorf, Hamburg, Germany) at 65 °C and 600 rpm for 15 min. After evaporating samples to dryness again, final reconstitution was performed as described above.

[3] = test system: hiPSC-derived blood-brain barrier model; details: human
[4] = test system: BBB; assay: Prediction of human in vivo K1 from in vitro Papp with the linear model
[5] = test system: hiPSC-derived blood-brain barrier model; assay: Bioavailable radioactivity of [benzyl-14C]-Deltamethrin in the transwell media by liquid scintillation counting; details: 1h, per replicate, listed as [benzyl-14C]-Deltamethrin
[6] = test system: rats; details: oral dosing, ref Amaraneni et al., 2016, Kim et al., 2008, 2007; cited from earlier work
[7] = test system: hiPSC-derived BBB; set-up: method as in Le Roux et al., 2019; details: high in vitro permeability not confirmed by this study; ref Le Roux et al., 2019; cited from earlier work
[8] = source not stated; cited from earlier work
[9] = In vitro hiPSC-derived blood-brain barrier model apparent permeability (Papp)
[10] = male, in vitro apparent permeability Papp
[11] = male, in vitro apparent permeability Papp, 96-transwell hiPSC-derived BBB, 60 min, 5 µM (17β-Estradiol 10 µM, Deltamethrin 3 µM)

Compound | Papp at 60 min [2, 9] [×10⁻⁶ cm/s] | Papp at 60 min [2, 10] [×10⁻⁶ cm/s] | In vivo human rate constant for compound transfer from blood across the BBB into brain (K1) [1] [mL min^-1 cm^-3] | Papp at 60 min ([2]; male) [×10⁻⁶ cm/s] | Papp at 60 min [2, 11] [×10⁻⁶ cm/s] | LogP [8] | also measured
CC1(C)[C@H](C(=O)O[C@H](C#N)c2cccc(Oc3ccccc3)c2)[C@@H]1C=C(Br)Br [Deltamethrin] |  | 0.979 |  |  |  |  | Bioavailable [benzyl-14C]-Deltamethrin [3]: 786.44 Bq; predicted in vivo K1 ([4]; after insertion of Papp into the linear model): −0.099 mL cm^-3 min^-1; Prediction of K1 ([4]; human in vivo K1 predicted from in vitro Papp with the linear model): -0.099 mL min^-1 cm^-3; Radioactivity Sample apical ([5]; BBB model, acceptor compartment): 1.40 Bq and 1.53 Bq and 1.70 Bq and 2.08 Bq; Radioactivity Sample basolateral ([5]; BBB model, donor compartment): 737.12 Bq and 789.28 Bq and 793.66 Bq and 818.98 Bq; Radioactivity Blank apical ([5]; cell-free control transwell with compound, acceptor compartment): 3.00 Bq and 3.65 Bq and 3.95 Bq and 2.93 Bq; Radioactivity Blank basolateral ([5]; cell-free control transwell with compound, donor compartment): 762.65 Bq and 864.27 Bq and 830.94 Bq and 846.43 Bq; brain entry and neurotoxic effects in rats [6]: entered the brain and exhibited neurotoxic effects only after 10 mg/kg oral dosing
C#Cc1cccc(Nc2ncnc3cc(OCCOC)c(OCCOC)cc23)c1 [Erlotinib] |  |  | 0.02 | 12.1 | < 15 |  | in vitro permeability Papp in previous hiPSC-derived BBB results [7]: > 15 × 10^–6 cm/s
CCOC(=O)c1ncn2c1CN(C)C(=O)c1cc(F)ccc1-2 [Flumazenil] |  |  |  |  |  | 1.9 | 
CN(C)C(=O)C(CCN1CCC(O)(c2ccc(Cl)cc2)CC1)(c1ccccc1)c1ccccc1 [Loperamide] |  |  | 0.002 | 6.75 | < 15 | 5.13 | human in vivo K1 (clinically shown to enter the human brain relatively poorly) ([1]; human, ref Bauer et al., 2015, Traxl et al.): < 0.05 mL cm^-3 min^-1

Continued, in another order:

Papp at 60 min [2, 9] [×10⁻⁶ cm/s] | Papp at 60 min [2, 10] [×10⁻⁶ cm/s] | Compound | In vivo human rate constant for compound transfer from blood across the BBB into brain (K1) [1] [mL min^-1 cm^-3] | Papp at 60 min ([2]; male) [×10⁻⁶ cm/s] | Papp at 60 min [2, 11] [×10⁻⁶ cm/s] | LogP [8] | also measured
16.9 | > 15 | C[C@]12CC[C@@H]3c4ccc(O)cc4CC[C@H]3[C@@H]1CC[C@@H]2O [17β-Estradiol] | 0.24 |  |  |  | human in vivo permeability K1 (elevated) ([1]; human, ref Delforge et al., 1995, Le Roux et al., 2019, Zubieta et al., 2000): > 0.1 mL cm^-3 min^-1
16.8 | > 15 | CCN1CCC[C@H]1CNC(=O)c1c(O)c(Cl)cc(Cl)c1OC [Raclopride] | 0.09 |  |  |  | 

From PMC13288645, “A cryopreserved and in vivo-in vitro validated human induced pluripotent stem cell blood-brain barrier model for reliable neurotoxicity assessment” (NAM journal, 2025)
